In patent EP1514922A1 (priority 2003, dated 2005):

How the values were obtained:
[1] = biological target: YFP double mutant YFP-H148Q/V163S (Aequorea victoria, UniProt P42212, H148Q/H231L/S65G/S72A/T203Y/V163S/V68L); settings: physiological pH (7,35); cited from earlier work
[2] = biological target: YFP double mutant YFP-H148Q/I152L (Aequorea victoria, UniProt P42212, H148Q/H231L/I152L/S65G/S72A/T203Y/V68L); settings: cited from earlier work
[3] = system: chloride sensor (ECFP - peptide linker - EYFP with mutations I152L, V163S, H148Q; SEQ ID No. 5); test: Calibration of chloride sensor emission ratio R=F527/F485 in patch-pipette dialysed cells; format: cell-based; settings: in HEK293 and BOSC23 cells; Rmax = 2,39, Rmin = 0,49
Method: The chloride sensor was expressed in human kidney derived cell lines (HEK293 and BOSC23) using a calcium phosphate transfection procedure.
Measurements of fluorescence are likely to reflect the average [Cl-] in the intracellular compartment.
The ratio (R) of fluorescence emission of the EYFP acceptor to that of the ECFP donor is R=F527/F485.
To calibrate the fluorescence of chloride sensor within these cells, R is measured while using a patch pipette to manipulate the cytoplasmic concentration of anions. A nominally Cl- free solution containing 150 mM gluconate is used to determine the maximal emission ratio for the chloride sensor (Rmax), whereas a solution containing a saturating concentration (150mM) of Cl- defines the minimal emission ratio (Rmin). The relationship between R and intermediates values of [Cl-] is then determined. This relationship could be described as : [Cl-]= K'd (Rmax - R)/(R - Rmin), [formula] with Rmax = 2,39, Rmin = 0,49 and K'd = 87mM. this calibration curve can then be used to convert R values measured in intracellular compartment of living cells into [Cl-].

For chloride [Cl^-], which Kd [1] is on record?
Its Kd is 39 mM.

What about the “binding kinetics (τ)” value [1] of the same substance?
Its value is 1900 ms.

And the Kd [2]?
The Kd was 85 mM.

What about the “binding kinetics (τ)” value [2] of the same substance?
Its value is 52 ms.

And the Kd [3]?
The Kd was 87 mM.
